Measured values published in patent US5869460A, “Sulfated and phosphated saccharide derivatives, process for the preparation of the same and use thereof” (Sanwa Kaguku Kenkyusho Co., Ltd., priority 1995, dated 1999).

Key:
[1] = system: lung damage model induced by cobra venom factor (CVF); bleeding; experiment: Anti-inflammatory action to lung damage model induced by CVF: index of bleeding (hemoglobin absorbance, 541 nm, in lung homogenate supernatant); assay type: in vivo, Lewis rats; settings: Rattus norvegicus, iv, 0.5 h, read-out: Inhibition rate (%), index of bleeding
Procedure: (§1) Anti-inflammatory action to lung damage model induced by CVF Compounds obtained by Examples and an exemplary known compound (sulfatide) were selected as Test Compounds to check an inflammatory action thereof to a lung damage model induced by cobra venom factor (CVF), in accordance with the method described by M. S. Mulligan et al ["J. IMMUNOL.", Vol.151, page 6410 (1993); and "INT. IMMUNOL.", Vol. 7, page 1107 (1995)].
(§2) Namely, the test compound was intravenously injected by an amount of 0.2 mg/rat to test animals (Lewis rats, age of 8 weeks, 5 animals in each group). After lapsed 5 minutes from administration, CVF (20U/2 ml/kg) was administered in a tail vein, and after 30 minutes, a laparotomy was carried out under nembutal anesthesia to perfuse the lung with phosphate-buffered saline (PBS, pH7.4) by injecting the same from right ventricle and to exenterate the lung. The extracted lung was homogenized with phosphate buffer (pH 7.4), centrifuged to collect a supernatant, and determined absorbance which was admitted as index of bleeding (It measures an amount of hemoglobin and thus detection wave-length was set to 541 nm).
(§3) Each inhibition rate (%) was calculated by
(§4) 100×[1-(value of test compound-value of negative control)/(value of positive control-value of negative control)].

[2] = system: lung damage model induced by cobra venom factor (CVF); infiltration in neutrocyte (myeloperoxidase); experiment: Anti-inflammatory action to lung damage model induced by CVF: myeloperoxidase activity as index of infiltration in neutrocyte; assay type: in vivo, Lewis rats; settings: Rattus norvegicus, iv, 0.5 h, read-out: Inhibition rate (%), myeloperoxidase activity as index of infiltration in neutrocyte
Procedure: as §1, §2
On the other hand, the precipitation obtained by centrifugation was sonicated in the presence of cetrimide and centrifuged to obtain a supernatant, an activity myeloperoxidase therein being measured as an index of infiltration in neutrocyte.
as §3, §4

Row | Structure (SMILES) | inhibition in vivo at 0.2 mg [1] | inhibition in vivo at 0.2 mg [2]
1 | CCCCCCCCCCCCCCC(CCCCCCCCCCCCCC)CO[C@@H]1O[C@H](CO)[C@@H](O[C@@H]2O[C@H](CO)[C@H](OP(=O)(O)O)[C@H](OP(=O)(O)O)[C@H]2O)[C@H](O)[C@H]1O [Example 22, Tetrasodium 2-tetradecylhexadecyl O-β-D-galactopyranosyl-(1→4)-β-D-glucopyranoside 3',4'-diphosphate] | 65% | 58%
2 | CCCC(CCC)CO[C@@H]1O[C@H](CO)[C@H](O)[C@H](OS(=O)(=O)O)[C@H]1O[C@@H]1O[C@@H](C)[C@@H](O)[C@@H](O)[C@@H]1O [Example 23-1, Sodium 2-propylpentyl O-α-L-fucopyranosyl-(1→2)-β-D-galactopyranoside 3-sulfate] | 53% | 51%
3 | CCCC(CCC)CO[C@@H]1O[C@H](CO)[C@H](O)[C@H](OP(=O)(O)O)[C@H]1O[C@@H]1O[C@@H](C)[C@@H](O)[C@@H](O)[C@@H]1O [Example 23-2, disodium 2-propylpentyl O-α-L-fucopyranosyl-(1→2)-β-D-galactopyranoside 3-phosphate] | 51% | 49%
4 | CCCC(CCC)CO[C@@H]1O[C@H](CO)[C@H](O)[C@H](OS(=O)(=O)O)[C@H]1O[C@@H]1O[C@@H](C)[C@@H](O)[C@@H](OS(=O)(=O)O)[C@@H]1O [Example 24-1, Disodium 2-propylpentyl O-α-L-fucopyranosyl-(1→2)-β-D-galactopyranoside 3,3'-disulfate] | 54% | 47%
5 | CCCC(CCC)CO[C@@H]1O[C@H](CO)[C@H](O)[C@H](OP(=O)(O)O)[C@H]1O[C@@H]1O[C@@H](C)[C@@H](O)[C@@H](OP(=O)(O)O)[C@@H]1O [Example 24-2, tetrasodium 2-propylpentyl O-α-L-fucopyranosyl-(1→2)-β-D-galactopyranoside 3,3'-diphosphate] | 50% | 49%
6 | CCCC(CCC)CO[C@@H]1O[C@H](COS(=O)(=O)O)[C@H](O)[C@H](OS(=O)(=O)O)[C@H]1O[C@@H]1O[C@@H](C)[C@@H](O)[C@@H](O)[C@@H]1O [Example 25, Disodium 2-propylpentyl O-α-L-fucopyranosyl-(1→2)-β-D-galactonyranoside 3,6-disulfate] | 56% | 50%
7 | CCCC(CCC)CO[C@@H]1O[C@H](COS(=O)(=O)O)[C@H](O)[C@H](OS(=O)(=O)O)[C@H]1O[C@@H]1O[C@@H](C)[C@@H](O)[C@@H](OS(=O)(=O)O)[C@@H]1O [Example 26, Trisodium 2-propylpentyl O-α-L-fucopyranosyl-(1→2)-β-D-galactopyranoside 3,3',6-trisulfate] | 56% | 50%
8 | CCCCCCCCCCCCCCC(CCCCCCCCCCCCCC)CO[C@@H]1O[C@H](CO)[C@H](O)[C@H](OS(=O)(=O)O)[C@H]1O[C@@H]1O[C@@H](C)[C@@H](O)[C@@H](O)[C@@H]1O [Example 27-1, Sodium 2-tetradecylhexadecyl O-α-L-fucopyranosyl-(1→2)-β-D-galactopyranoside 3-sulfate] | 65% | 61%
9 | CCCCCCCCCCCCCCC(CCCCCCCCCCCCCC)CO[C@@H]1O[C@H](CO)[C@H](O)[C@H](OP(=O)(O)O)[C@H]1O[C@@H]1O[C@@H](C)[C@@H](O)[C@@H](O)[C@@H]1O [Example 27-2, disodium 2-tetradecylhexadecyl O-α-L-fucopyranosyl-(1→2)-β-D-galactopyranoside 3-phosphate] | 62% | 58%
10 | CCCCCCCCCCCCCCC(CCCCCCCCCCCCCC)CO[C@@H]1O[C@H](CO)[C@H](O)[C@H](OS(=O)(=O)O)[C@H]1O[C@@H]1O[C@@H](C)[C@@H](O)[C@@H](OS(=O)(=O)O)[C@@H]1O [Example 28-1, disodium 2-tetradecylhexadecyl O-α-L-fucopyranosyl-(1→2)-β-D-galactopyranoside 3,3'-disulfate] | 63% | 60%
